From patent publication US8686130B2, “Artificial fluorescent bases” (Riken, priority 2009, dated 2014)
Several values for one entry are separate records, joined by “and”; a condition that tells them apart may be missing. Equal entries are not always repeated. Where two headings read alike, the source gives them in different places.

Experiments:
T7 RNA polymerase = T7 RNA polymerase (Escherichia phage T7, UniProt P00573); settings: 0.05 to 0.1 mM substrate, 1 mM natural NTPs, 37° C., 3 hr
Method: Templates for transcription by the T7 polymerase were prepared by heating chemically synthesized two DNA strands (10 μM coding strand (SEQ ID NO: 4) of 35-mer and non-coding strand (SEQ ID NO: 5) of 21-mer) at 95° C. in a 10 mM Tris-HCl buffer (pH 7.6) containing 10 mM NaCl and then slowly cooled to 4° C. for annealing. The transcription by the T7 polymerase was performed by using 2 μM of the template and 50 units of a T7 RNA polymerase (Takara Shuzo Co., Ltd., Kyoto) in a 40 mM Tris-HCl buffer (pH 8.0, 20 μL) containing 24 mM MgCl2, 2 mM spermidine, 5 mM DTT, and 0.01% Triton X-100 in the presence of 1 mM natural NTPs, 0.05 to 0.1 mM ssTP or DssTP (ribonucleoside 5′-triphosphate of ss or Dss). After the reaction at 37° C. for 3 hr, the reaction was terminated by addition of a dye solution (20 μL) containing 10 M urea and 0.05% BPB. […] The transcription product was protected by placing the gel on a TLC containing a fluorescent indicator, irradiating the gel with UV of 254 nm, and photographing the image with a Polaroid camera utilizing the phenomenon that nucleic acid absorbs the UV and thereby the band of the transcription product is detected as an image. The transcript including the unnatural fluorescent base ss or Dss was detected with a bio-imaging analyzer, LAS 4000 (Fujifilm Corporation) utilizing epi-UV LED.

[1] = cited from earlier work
[2] = Fluorescence characteristics of base analog nucleosides; assay type: physicochemical; settings: for Absorption maximum / Excitation wavelength / Fluorescence intensity (ε × φ) / Fluorescence wavelength / Molar absoption coefficient ε / Stokes shift: deoxyribonucleoside derivative; for Quantum yield (φ): quinine sulfate as a standard; for Fluorescence emitted by excitation at a wavelength of 350 nm or more: excitation 350 nm or more
Method: Reagents and solvents were purchased from typical suppliers and were used without further purification. ^1H-NMR (300 MHz, 270 MHz) and ^31P-NMR (121 MHz) spectra were recorded on a BRUKER AV300 or JEOL nuclear magnetic resonance spectrometer. Synthesized nucleoside derivatives and nucleoside 5′-triphosphate were purified with a Gilson HPLC system using a fractionation column (Waters Microbond Sphere, C18, 19 mm×150 mm, flow rate: 10 mL/min) and a fractionation column (PEGASIL C8, Senshu Scientific Co., Ltd., 10 mm×150 mm, flow rate: 6 mL/min), respectively. Electrospray-ionization mass spectra (ESI-MS) were recorded on a Waters ZMD 4000 mass system equipped with a Waters 2690 LC system. Fluorescence spectra were measured with a JASCO FP6500 fluorescence spectrometer, and fluorescence quantum yields were determined using quinine sulfate as a standard.
Fluorescence characteristics of nucleosides including an unnatural base, ss, sss, Dss, Dsss, Dsas, Dsav, or Dvas, were evaluated. For comparison, fluorescence characteristics of nucleosides including known unnatural bases, 2-aminopurine, s (2-amino-6-(2-thienyl)purin-9-yl group), v (2-amino-6-(2-thiazolyl)purin-9-yl group), and Ds (7-(2-thienyl)imidazo[4,5-b]pyridin-3-yl group) were also evaluated.

Klenow fragment (exo+) = Klenow fragment (exo+) (Escherichia coli, UniProt P00582); settings: 0.5 μM dDssTP with 10 μM natural base substrate, 37° C.
Chain of Klenow fragment (exo+) (P00582 324-928): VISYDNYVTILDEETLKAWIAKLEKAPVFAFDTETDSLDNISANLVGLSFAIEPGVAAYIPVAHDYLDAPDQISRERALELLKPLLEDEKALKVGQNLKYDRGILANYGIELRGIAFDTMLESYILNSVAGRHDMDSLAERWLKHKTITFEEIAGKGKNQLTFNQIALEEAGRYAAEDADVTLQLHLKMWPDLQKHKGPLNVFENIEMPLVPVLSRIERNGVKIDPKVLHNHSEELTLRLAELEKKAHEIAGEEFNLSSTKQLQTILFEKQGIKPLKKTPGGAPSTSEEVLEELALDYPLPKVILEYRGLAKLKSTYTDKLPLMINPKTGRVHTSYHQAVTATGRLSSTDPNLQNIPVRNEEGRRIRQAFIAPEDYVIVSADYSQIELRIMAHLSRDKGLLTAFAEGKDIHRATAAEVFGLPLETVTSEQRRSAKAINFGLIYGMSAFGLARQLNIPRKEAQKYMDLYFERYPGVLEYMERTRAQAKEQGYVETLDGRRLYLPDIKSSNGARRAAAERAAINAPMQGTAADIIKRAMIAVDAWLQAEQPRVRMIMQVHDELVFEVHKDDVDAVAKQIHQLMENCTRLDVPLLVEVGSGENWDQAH
Method: Template strand DNA (SEQ ID NO: 1,35-mer, 400 nM) dissolved in 2× reaction buffer (20 mM tris-HCl, pH 7.5, 14 mM MgCl2, 0.2 mM DTT) and a primer labeled with ^32P at the 5′-end (SEQ ID NO: 2,23-mer, 400 nM) were heated at 95° C. for 3 min and then slowly cooled for annealing to form a double strand. To each 5 μL of the resulting double-stranded DNA solution, 2.5 μL of a 4×dNTP solution mixture (40 μM dTTP, 40 μM dCTP, 0 to 40 μM dDssTP) and 2.5 μL (1 unit) of Klenow fragment (Takara Shuzo Co., Ltd.) diluted with water were added to start the enzyme reaction at 37° C. After incubation at 37° C., the reaction was terminated by addition of a TBE solution containing 10 μL of 10 M urea and heating at 75° C. for 3 min. A part of the reaction solution was subjected to electrophoresis with 15% polyacrylamide-7 M urea gel and analyzed with a bio-imaging analyzer (FLA7000, Fujifilm Corporation).

[3] = test system: mRNA of firefly luciferase; assay: Suppression of firefly luciferase reporter gene expression by shRNA in HeLa cells (dual luciferase assay); assay type: cell-based; settings: different shRNA concentrations, read-out: IC50 for suppressing expression of firefly luciferase gene
Method: In this Example, various shRNAs prepared by T7 transcription and gel purification were introduced into HeLa cells by lipofection together with a plasmid encoding a target reporter gene (firefly luciferase) and a control plasmid endocing a Renilla luciferase gene. Suppression of the target gene expression was investigated based on the luminescence of luciferase. […]
HeLa cells were seeded at 1.5×10^4 cells (100 μL of culture medium)/well in a 96-well plate and were cultured in an MEM medium containing 10% fetal bovine serum but not containing antibiotics for 24 hr. […] After culturing for 22 hr, the intensity of luminescence emitted from each of the two types of luciferase proteins was determined.
The effect of suppressing expression of the firefly luciferase protein, which is the target of shRNA, was analyzed by the intensities of luminescence emitted from the firefly luciferase and Renilla luciferase using dual luciferase reporter assay reagent (Promega Corporation). […] The resulting solution was mixed with 100 μL of LAR II reagent, and the luminescence of the firefly luciferase was detected (exposure time: 120 sec) with LAS 4000 (Fujifilm Corporation), then, 100 μL of Stop & Glo reagent was added thereto, and the luminescence of the Renilla luciferase was detected (exposure time: 200 sec). […]

[4] = from Ward et al., J. Biol. Chem. 1969

Chain of T7 RNA polymerase (P00573 whole entry): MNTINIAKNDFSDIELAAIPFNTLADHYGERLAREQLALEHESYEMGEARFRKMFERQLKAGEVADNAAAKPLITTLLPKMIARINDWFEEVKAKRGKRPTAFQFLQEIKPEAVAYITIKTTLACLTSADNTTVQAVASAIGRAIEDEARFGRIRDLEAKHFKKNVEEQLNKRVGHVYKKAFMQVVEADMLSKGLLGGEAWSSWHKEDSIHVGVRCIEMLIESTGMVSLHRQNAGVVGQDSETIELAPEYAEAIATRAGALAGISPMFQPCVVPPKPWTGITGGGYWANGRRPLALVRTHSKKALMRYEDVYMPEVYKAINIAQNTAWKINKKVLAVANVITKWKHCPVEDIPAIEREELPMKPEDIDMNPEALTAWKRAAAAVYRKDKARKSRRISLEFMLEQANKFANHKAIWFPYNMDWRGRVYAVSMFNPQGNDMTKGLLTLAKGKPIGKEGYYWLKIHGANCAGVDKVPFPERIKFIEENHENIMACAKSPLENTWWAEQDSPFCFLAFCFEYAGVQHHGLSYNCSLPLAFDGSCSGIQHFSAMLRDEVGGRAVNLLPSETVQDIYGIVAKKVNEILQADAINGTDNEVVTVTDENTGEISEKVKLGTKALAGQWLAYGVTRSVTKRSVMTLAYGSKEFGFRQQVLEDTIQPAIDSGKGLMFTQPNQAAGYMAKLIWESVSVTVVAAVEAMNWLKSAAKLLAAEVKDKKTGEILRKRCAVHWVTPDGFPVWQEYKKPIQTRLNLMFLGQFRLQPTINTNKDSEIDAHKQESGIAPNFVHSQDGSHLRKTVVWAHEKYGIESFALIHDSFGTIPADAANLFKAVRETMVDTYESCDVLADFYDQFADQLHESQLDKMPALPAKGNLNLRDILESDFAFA

Row | Absorption maximum [2] [nm] | Excitation wavelength [2] | Fluorescence intensity (ε × φ) [2] | Fluorescence wavelength [2] [nm] | Molar absoption coefficient ε [2] [M⁻¹ cm⁻¹] | Stokes shift [2] [nm] | Quantum yield (φ) [2] | Compound | other results
1 |  |  |  |  |  |  |  | O=P(O)(O)OP(=O)(O)OP(=O)(O)OC[C@H]1O[C@@H](n2cnc3c(-c4ccc(-c5cccs5)s4)ccnc32)[C@H](O)[C@@H]1O [DssTP, 7-(2,2′-bithien-5-yl)-3-(β-D-ribofuranosyl)imidazo[4,5-b]pyridine 5′-triphosphate] | Incorporation into RNA opposite Pa in template DNA (T7 RNA polymerase): selectively incorporated into RNA depending on Pa
2 |  |  |  |  |  |  |  | Nc1nc(-c2cccs2)c2[nH]cnc2n1 [s, 2-amino-6-thienylpurine] | Fluorescence wavelength ([1]; background art): 435 nm; Maximum excitation wavelength ([1]; background art): 348 nm
3 | 365 | 368 nm | 2795 | 445 | 21500 | 77 | 0.13 | OC[C@H]1O[C@@H](n2ccc3c(-c4ccc(-c5nccs5)s4)ccnc32)C[C@@H]1O [dDsav, 1-[2-deoxy-β-D-ribofuranosyl]-4-[2-(2-thiazolyl)thien-5-yl]pyrrolo[2,3-b]pyridine] | 
4 | 377 | 378 nm | 3780 | 449 | 27000 | 71 | 0.14 | OC[C@H]1O[C@@H](n2ccc3c(-c4ncc(-c5cccs5)s4)ccnc32)C[C@@H]1O [dDvas, 1-[2-deoxy-β-D-ribofuranosyl]-4-[5-(2-thienyl)thiazol-2-yl]pyrrolo[2,3-b]pyridine] | 
5 |  |  |  |  |  |  |  | Nc1nc(-c2ccc(-c3cccs3)s2)c2ncn([C@@H]3O[C@H](COP(=O)(O)OP(=O)(O)OP(=O)(O)O)[C@@H](O)[C@H]3O)c2n1 [ssTP] | Incorporation into RNA opposite Pa in template DNA (T7 RNA polymerase): selectively incorporated into RNA depending on Pa
6 | 370 | 371 nm | 10400 | 442 | 32500 | 71 | 0.32 | OC[C@H]1O[C@@H](n2cnc3c(-c4ccc(-c5cccs5)s4)ccnc32)C[C@@H]1O [dDss, 7-(2,2′-bithien-5-yl)-3-(2-deoxy-β-D-ribofuranosyl)imidazo[4,5-b]pyridine] | 
7 | 353 | 350 nm and 351 nm | 2576 | 429 | 11200 | 78 | 0.23 | c1csc(-c2ccnc3nc[nH]c23)c1 [ds, 7-(2-thienyl)-imidazo[4,5-b]pyridine, reference compound] | Fluorescence by excitation at a wavelength of 350 nm or more ([1]; background art): substantially invisible to the naked eye
8 |  |  |  |  |  |  |  | O=P(O)(O)OP(=O)(O)OP(=O)(O)OC[C@H]1O[C@@H](n2cnc3c(-c4ccc(-c5cccs5)s4)ccnc32)C[C@@H]1O [dDssTP, 7-(2,2′-bithien-5-yl)-3-(2-deoxy-β-D-ribofuranosyl)imidazo[4,5-b]pyridine 5′-triphosphate] | Incorporation into DNA opposite Pa in template DNA (Klenow fragment (exo+)): selectively incorporated into a complementary DNA strand
9 | 365 | 367 nm | 2795 | 451 | 21500 | 84 | 0.13 | OC[C@H]1O[C@@H](n2ccc3c(-c4ccc(-c5cccs5)s4)ccnc32)C[C@@H]1O [dDsas, 1-[2-deoxy-β-D-ribofuranosyl]-4-(2,2′-bithien-5-yl)-pyrrolo[2,3-b]pyridine] | 
10 | 313 |  | 4180 | 366 | 22000 | 54 | 0.19 | OC[C@H]1O[C@@H](n2cnc3c(-c4cccs4)ccnc32)C[C@@H]1O [dDs, reference compound] | Fluorescence emitted by excitation at a wavelength of 350 nm or more [2]: does not emit light
11 | 403 | 407 nm | 3132 | 489 | 34800 | 82 | 0.09 | OC[C@H]1O[C@@H](n2cnc3c(-c4ccc(-c5ccc(-c6cccs6)s5)s4)ccnc32)C[C@@H]1O [dDsss, 7-(2,2′,5′,2″-terthien-5-yl)-3-(2-deoxy-β-D-ribofuranosyl)imidazo[4,5-b]pyridine] | 
12 |  |  |  |  |  |  |  | shRNAF1 WT: 52-mer short hairpin RNA (SEQ ID NO: 10) targeting mRNA of firefly luciferase, A36 unsubstituted (GGAGCCUUCAGGAUUACAAGAUUCAAGAGUCUUGUAAUCCUGAAGGCUCCUU; short hairpin RNA, synthesis route not given here, further chemistry not given here) | IC50 [3]: ~0.02 nM
13 | 414 | 419 nm | 4928 | 508 | 44800 | 89 | 0.11 | Nc1nc(-c2ccc(-c3ccc(-c4cccs4)s3)s2)c2ncn([C@H]3C[C@H](O)[C@@H](CO)O3)c2n1 [dsss, 2-amino-6-(2,2′,5′,2″-terthien-5-yl)-9-(2-deoxy-β-D-ribofuranosyl)purine] | 
14 |  |  |  |  |  |  |  | Nc1ncc2[nH]cnc2n1 [2-aminopurine] | Absorption maximum [1, 4]: 304 nm; Excitation wavelength [1, 4]: about 300 nm; Fluorescence intensity (ε × φ) [1, 4]: 4828; Fluorescence wavelength [1, 4]: 370 nm; Molar absoption coefficient ε [1, 4]: 7100 M⁻¹ cm⁻¹; Quantum yield (φ) [1, 4]: 0.68; Stokes shift [1, 4]: 67 nm; Excitation wavelength ([1]; from Ward et al., J. Biol. Chem. 1969, listed as 2-aminoprine): 303 nm; Fluorescence emitted by excitation at a wavelength of 350 nm or more [2]: considerably low

Row | Compound | Absorption maximum [2] [nm] | Excitation wavelength [2] | Fluorescence intensity (ε × φ) [2] | Fluorescence wavelength [2] [nm] | Molar absoption coefficient ε [2] [M⁻¹ cm⁻¹] | Stokes shift [2] [nm] | Quantum yield (φ) [2] | other results
15 | Nc1nc(-c2nccs2)c2ncn([C@H]3C[C@H](O)[C@@H](CO)O3)c2n1 [dv, reference compound] | 363 | 363 nm and 357 nm | 3444 | 461 | 8400 | 104 | 0.41 | Stability of nucleoside derivative under basic conditions: low stability
